Tested on: RKO p21 uninduced (proliferating) colon adenocarcinoma cells
Assay: Alamar Blue cell viability assay, RKO p21 uninduced (proliferating)
Assay type: cell-based
Details: Homo sapiens, Table B3, anti-proliferative/cytotoxic activity, 72 hours, read-out: −log EC50 RKO p21 uninduced (proliferating) (converted)
Outline: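 Viability read by Alamar Blue fluorescence (ex 544, em 590 nm), normalised to untreated wells, after 72 h, 37° C, 5% CO2 compound exposure in triplicate. Cells were uninduced (no Ponasterone A), proliferating RKO colon carcinoma p27 or p21 subclones in DMEM with 10% FCS; values are −log EC50 (mol/l).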

SMILES | EC50 [nM]
CN(C)CCCN1C(=O)N2[C@H](c3cccc(O)c3)c3[nH]c4ccc(OC(F)F)cc4c3C[C@@]2(C)C1=O (racemic) [Example 314, (3aSR,10RS)-6-(1,1-Difluoro-methoxy)-2-(3-dimethylamino-propyl)-10-(3-hydroxy-phenyl)-3a-methyl-3a,4,9,10-tetrahydro-2,9,10a-triaza-cyclopenta[b]fluorene-1,3-dione] | ≤ 39.8
CCN(CCO)CCCN1C(=O)N2[C@H](c3cccc(O)c3)c3[nH]c4cc(F)c(OC)cc4c3C[C@@]2(C)C1=O (racemic) [Example 315, (3aSR,10RS)-2-{3-[Ethyl-(2-hydroxy-ethyl)-amino]-propyl}-7-fluoro-10-(3-hydroxy-phenyl)-6-methoxy-3a-methyl-3a,4,9,10-tetrahydro-2,9,10a-triaza-cyclopenta[b]fluorene-1,3-dione] | 39.8 to 251
CCN(CCCN1C(=O)N2[C@H](c3cccc(O)c3)c3[nH]c4cc(F)c(OC)cc4c3C[C@@]2(C)C1=O)CCOC (racemic) [Example 316, (3aSR,10RS)-2-{3-[Ethyl-(2-methoxy-ethyl)-amino]-propyl}-7-fluoro-10-(3-hydroxy-phenyl)-6-methoxy-3a-methyl-3a,4,9,10-tetrahydro-2,9,10a-triaza-cyclopenta[b]fluorene-1,3-dione] | 39.8 to 251
C=CCN(C)CCCN1C(=O)N2[C@H](c3cccc(O)c3)c3[nH]c4cc(F)c(OC)cc4c3C[C@@]2(C)C1=O (racemic) [Example 317, (3aSR,10RS)-2-[3-(Allyl-methyl-amino)-propyl]-7-fluoro-10-(3-hydroyx-phenyl)-6-methoxy-3a-methyl-3a,4,9,10-tetrahydro-2,9,10a-triaza-cyclopenta[b]fluorene-1,3-dione] | 39.8 to 251
COc1cc2c3c([nH]c2cc1F)[C@@H](c1cccc(O)c1)N1C(=O)N(CCCN(C)C(C)C)C(=O)[C@]1(C)C3 (racemic) [Example 319, (3aSR,10RS)-7-Fluoro-10-(3-hydroxy-phenyl)-2-[3-(isopropyl-methyl-amino)-propyl]-6-methoxy-3a-methyl-3a,4,9,10-tetrahydro-2,9,10a-triaza-cyclopenta[b]fluorene-1,3-dione] | 39.8 to 251
COc1cc2c3c([nH]c2cc1F)[C@@H](c1cccc(O)c1)N1C(=O)N(CCCN2CCOCC2)C(=O)[C@]1(C)C3 (racemic) [Example 321, (3aSR,10RS)-7-Fluoro-10-(3-hydroxy-phenyl)-6-methoxy-3a-methyl-2-(3-morpholin-4-yl-propyl)-3a,4,9,10-tetrahydro-2,9,10a-triaza-cyclopenta[b]fluorene-1,3-dione] | 39.8 to 251
COc1cc2c3c([nH]c2cc1F)[C@@H](c1cccc(O)c1)N1C(=O)N(CCCN2CCCC2)C(=O)[C@]1(C)C3 (racemic) [Example 322, (3aSR,10RS)-7-Fluoro-10-(3-hydroxy-phenyl)-6-methoxy-3a-methyl-2-(3-pyrrolidin-1-yl-propyl)-3a,4,9,10-tetrahydro-2,9,10a-triaza-cyclopenta[b]fluorene-1,3-dione] | 39.8 to 251
COc1cc2c3c([nH]c2cc1F)[C@@H](c1cccc(O)c1)N1C(=O)N(CCCN2CC=CC2)C(=O)[C@]1(C)C3 (racemic) [Example 323, (3aSR,10RS)-2-[3-(2,5-Dihydro-pyrrol-1-yl)-propyl]-7-fluoro-10-(3-hydroxy-phenyl)-6-methoxy-3a-methyl-3a,4,9,10-tetrahydro-2,9,10a-triaza-cyclopenta[b]fluorene-1,3-dione] | 39.8 to 251
COc1cc2c3c([nH]c2cc1F)[C@@H](c1cccc(O)c1)N1C(=O)N(CCCN2CCCCC2)C(=O)[C@]1(C)C3 (racemic) [Example 324, (3aSR,10RS)-7-Fluoro-10-(3-hydroxy-phenyl)-6-methoxy-3a-methyl-2-(3-piperidin-1-yl-propyl)-3a,4,9,10-tetrahydro-2,9,10a-triaza-cyclopenta[b]fluorene-1,3-dione] | 39.8 to 251
COc1cc2c3c([nH]c2cc1F)[C@@H](c1cccc(O)c1)N1C(=O)N(CCCN2CCN(C)CC2)C(=O)[C@]1(C)C3 (racemic) [Example 325, (3aSR,10RS)-7-Fluoro-10-(3-hydroxy-phenyl)-6-methoxy-3a-methyl-2-[3-(4-methyl-piperazin-1-yl)-propyl]-3a,4,9,10-tetrahydro-2,9,10a-triaza-cyclopenta[b]fluorene-1,3-dione] | 39.8 to 251
COc1cc2c3c([nH]c2cc1F)[C@@H](c1cccc(O)c1)N1C(=O)N(CCCN2CC=CCC2)C(=O)[C@]1(C)C3 (racemic) [Example 326, (3aSR,10RS)-2-[3-(3,6-Dihydro-2H-pyridin-1-yl)-propyl]-7-fluoro-10-(3-hydroxy-phenyl)-6-methoxy-3a-methyl-3a,4,9,10-tetrahydro-2,9,10a-triaza-cyclopenta[b]fluorene-1,3-dione] | 39.8 to 251
COc1cc2c3c([nH]c2cc1F)[C@@H](c1cccc(O)c1)N1C(=O)N(CCCN2CCC(C)CC2)C(=O)[C@]1(C)C3 (racemic) [Example 327, (3aSR,10RS)-7-Fluoro-10-(3-hydroxy-phenyl)-6-methoxy-3a-methyl-2-[3-(4-methyl-piperidin-1-yl)-propyl]-3a,4,9,10-tetrahydro-2,9,10a-triaza-cyclopenta[b]fluorene-1,3-dione] | 39.8 to 251
COc1cc2c3c([nH]c2cc1F)[C@@H](c1cccc(O)c1)N1C(=O)N(CCCN2CCCCCC2)C(=O)[C@]1(C)C3 (racemic) [Example 329, (3aSR,10RS)-2-(3-Azepan-1-yl-propyl)-7-fluoro-10-(3-hydroxy-phenyl)-6-methoxy-3a-methyl-3a,4,9,10-tetrahydro-2,9,10a-triaza-cyclopenta[b]fluorene-1,3-dione] | 39.8 to 251
CCNCCCN1C(=O)N2[C@H](c3cccc(O)c3)c3[nH]c4cc(F)c(OC)cc4c3C[C@@]2(C)C1=O (racemic) [Example 330, (3aSR,10RS)-2-(3-Ethylamino-propyl)-7-fluoro-10-(3-hydroxy-phenyl)-6-methoxy-3a-methyl-3a,4,9,10-tetrahydro-2,9,10a-triaza-cyclopenta[b]fluorene-1,3-dione] | 39.8 to 251
COc1cc2c3c([nH]c2cc1F)[C@@H](c1cccc(O)c1)N1C(=O)N(CCCNC(C)C)C(=O)[C@]1(C)C3 (racemic) [Example 331, (3aSR,10RS)-7-Fluoro-10-(3-hydroxy-phenyl)-2-{3-isopropylamino-propyl)-6-methoxy-3a-methyl-3a,4,9,10-tetrahydro-2,9,10a-triaza-cyclopenta[b]fluorene-1,3-dione] | 39.8 to 251
COc1cc2c3c([nH]c2cc1F)[C@@H](c1cccc(O)c1)N1C(=O)N(CCCNCC(C)C)C(=O)[C@]1(C)C3 (racemic) [Example 332, (3aSR,10RS)-7-Fluoro-10-(3-hydroxy-phenyl)-2-(3-isobutylamino-propyl)-6-methoxy-3a-methyl-3a,4,9,10-tetrahydro-2,9,10a-triaza-cyclopenta[b]fluorene-1,3-dione] | 39.8 to 251
COc1cc2c3c([nH]c2cc1F)[C@@H](c1cccc(O)c1)N1C(=O)N(CCCNC2CCC2)C(=O)[C@]1(C)C3 (racemic) [Example 333, (3aSR,10RS)-2-(3-Cyclobutylamino-propyl)-7-fluoro-10-(3-hydroxy-phenyl)-6-methoxy-3a-methyl-3a,4,9,10-tetrahydro-2,9,10a-triaza-cyclopenta[b]fluorene-1,3-dione] | 39.8 to 251
C=CCNCCCN1C(=O)N2[C@H](c3cccc(O)c3)c3[nH]c4cc(F)c(OC)cc4c3C[C@@]2(C)C1=O (racemic) [Example 334, (3aSR,10RS)-2-(3-Allylamino-propyl)-7-fluoro-10-(3-hydroxy-phenyl)-6-methoxy-3a-methyl-3a,4,9,10-tetrahydro-2,9,10a-triaza-cyclopenta[b]fluorene-1,3-dione] | 39.8 to 251
CN(C)CCCN1C(=O)N2[C@H](c3cccc(O)c3)c3[nH]c4cc(F)c(Cl)cc4c3C[C@@]2(C)C1=O (racemic) [Example 335, (3aSR,10RS)-6-Chloro-2-(3-dimethylamino-propyl)-7-fluoro-10-(3-hydroxy-phenyl)-3a-methyl-3a,4,9,10-tetrahydro-2,9,10a-triaza-cyclopenta[b]fluorene-1,3-dione] | 39.8 to 251
CCN(CC)CCN1C(=O)N2[C@H](c3cccc(O)c3)c3[nH]c4cc(F)c(Cl)cc4c3C[C@@]2(C)C1=O (racemic) [Example 336, (3aSR,10RS)-6-Chloro-2-(2-diethylamino-ethyl)-7-fluoro-10-(3-hydroyx-phenyl)-3a-methyl-3a,4,9,10-tetrahydro-2,9,10a-triaza-cyclopenta[b]fluorene-1,3-dione] | 39.8 to 251
CNCCN1C(=O)N2[C@H](c3cccc(O)c3)c3[nH]c4cc(F)c(Cl)cc4c3C[C@@]2(C)C1=O (racemic) [Example 337, (3aSR,10RS)-6-Chloro-7-fluoro-10-(3-hydroxy-phenyl)-3a-methyl-2-(2-methylamino-ethyl)-3a,4,9,10-tetrahydro-2,9,10a-triaza-cyclopenta[b]fluorene-1,3-dione] | ≤ 39.8
CCNCCN1C(=O)N2[C@H](c3cccc(O)c3)c3[nH]c4cc(F)c(Cl)cc4c3C[C@@]2(C)C1=O (racemic) [Example 338, (3aSR,10RS)-6-Chloro-2-(2-ethylamino-ethyl)-7-fluoro-10-(3-hydroxy-phenyl)-3a-methyl-3a,4,9,10-tetrahydro-2,9,10a-triaza-cyclopenta[b]fluorene-1,3-dione] | ≤ 39.8
CC(C)NCCN1C(=O)N2[C@H](c3cccc(O)c3)c3[nH]c4cc(F)c(Cl)cc4c3C[C@@]2(C)C1=O (racemic) [Example 339, (3aSR,10RS)-6-Chloro-7-fluoro-10-(3-hydroxy-phenyl)-2-(2-isopropylamino-ethyl)-3a-methyl-3a,4,9,10-tetrahydro-2,9,10a-triaza-cyclopenta[b]fluorene-1,3-dione] | ≤ 39.8

From US8530493B2, “Indolopyridines as Eg5 kinesin modulators” (4SC AG, priority 2006, dated 2013)
